{"source": "patent US11174242B2", "about": "“Heteroaryl compounds and their use” (Minoryx Therapeutics S.L., priority 2016, dated 2021)", "key": {"[1]": {"molecular_target": "T1, β-glucocerebrosidase, p.L444P mutation (GM08760A fibroblasts) (Homo sapiens, UniProt P04062, L483P)", "T1 construct": "host or cells: human Gaucher patient fibroblasts GM08760A, homozygous L444P", "T1 sequence (P04062 40-536 L483P)": "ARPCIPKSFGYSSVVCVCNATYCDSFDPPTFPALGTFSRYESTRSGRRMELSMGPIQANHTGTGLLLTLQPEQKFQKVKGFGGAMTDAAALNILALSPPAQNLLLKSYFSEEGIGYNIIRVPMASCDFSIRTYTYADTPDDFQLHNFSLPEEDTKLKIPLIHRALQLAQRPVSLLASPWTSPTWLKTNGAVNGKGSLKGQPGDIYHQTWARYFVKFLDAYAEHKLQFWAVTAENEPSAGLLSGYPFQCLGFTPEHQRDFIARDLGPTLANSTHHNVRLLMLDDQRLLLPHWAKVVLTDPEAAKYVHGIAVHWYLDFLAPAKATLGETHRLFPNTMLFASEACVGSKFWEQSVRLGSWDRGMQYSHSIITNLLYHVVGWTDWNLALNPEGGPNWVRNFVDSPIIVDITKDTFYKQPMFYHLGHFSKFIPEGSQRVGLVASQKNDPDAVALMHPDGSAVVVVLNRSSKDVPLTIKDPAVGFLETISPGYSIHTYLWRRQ", "test": "Enhancement of β-glucocerebrosidase activity measured in Gaucher disease fibroblasts (L444P)", "format": "cell-based", "conditions": "increase in enzyme activity vs non-treated cells, GBA fibroblasts bearing L444P", "method": "Enhancement of β-Glucocerebrosidase Activity Measured in Gaucher Disease Fibroblasts Materials\nHuman fibroblasts from a patient with Gaucher disease homozygous for p.L444P mutation (GM08760A) were purchased from Coriell Institute for Medical Research (Camden, N.J., USA).\n(§1) Fibroblasts were seeded at 5×10^3 cells per well in 96-well cell culture plates (Corning, N.Y., USA) in Dulbecco's Modified Eagle's Media (DMEM) supplemented with 10% of fetal bovine serum (FBS), 1% penicillin/streptomycin (P/S) (Thermo Fisher Scientific, Waltham, Mass., USA) and grown at 37° C., 5% CO2 overnight for cell attachment. Subsequently, cells were incubated in the absence or presence of the compounds at the desired concentration for 4 days. After incubation, cells were washed twice with phosphate-buffered saline (PBS) and enzyme activity assay was performed.\n(§2) β-glucocerebrosidase activity in intact cultured cells was measured by using 4-methylumbelliferyl-β-D-glucopyranoside substrate (Apollo Scientific, UK). Briefly, cells were incubated with 4-MU-β-D-glucopyranoside in 0.1 M acetate buffer pH=4 at 37° C. for 1 hour. […] The liberated 4-MU was measured on a GloMax Discover plate reader (Promega, Madison, Wis., USA) with and excitation at 340 nm and emission at 460 nm. Enzyme activities were expressed in treated cells as X-fold increase in comparison with non-treated cells (X=1 represents no enhancement).\nThe capacity of the compounds of the disclosure to produce an increase in enzyme activity in GBA fibroblasts bearing L444P at concentrations between 6 and 50 μM is denoted as follows:\n(§3) The following compounds listed in Table 2 were purchased (from Enamine, Princeton, Asinex, Vistas-M, and OSSK_541352) and tested in the assay as described above."}, "[2]": {"molecular_target": "T2, β-glucocerebrosidase Wild Type (WT) (Homo sapiens, UniProt P04062)", "T2 construct": "endogenous in cells", "T2 sequence (P04062 40-536)": "T1 sequence (P04062 40-536 L483P) with P444L", "test": "β-glucocerebrosidase activity enhancement, Wild Type (WT)", "format": "cell-based", "conditions": "increase in enzyme activity vs non-treated cells; for Activity WT: commercially available compounds", "method": "as §1, §2, §3"}, "[3]": {"conditions": "commercially available compounds, 6-50 μM, 4 days"}, "[4]": {"conditions": "concentrations between 6 and 50 μM, 4 days incubation"}}, "note": "Substitutions are numbered along the chain they refer to.", "data": [{"smiles": "CCN(Cc1ccccc1)C(C)c1nc(N)nc(Nc2ccccc2)n1", "note": "(centres unmarked) [6-(1-(benzyl(ethyl)amino)ethyl)-N2-phenyl-1,3,5-triazine-2,4-diamine]", "values": [{"measurement": "Activity L444P", "setting": "[1]; [3]", "value": "B (Increase in comparison with non-treated of >1.7-2.0 fold is shown as B)"}, {"measurement": "Activity WT", "setting": "[2]", "value": "B (Increase in comparison with non-treated of >1.7-2.0 fold is shown as B)"}]}, {"smiles": "Cc1ccc(Nc2nc(N)nc(CN3CCc4ccccc4C3)n2)cc1", "note": "[6-((3,4-dihydroisoquinolin-2(1H)-yl)methyl)-N2-(p-tolyl)-1,3,5-triazine-2,4-diamine]", "values": [{"measurement": "Activity L444P", "setting": "[1]; [3]", "value": "B (Increase in comparison with non-treated of >1.7-2.0 fold is shown as B)"}, {"measurement": "Activity WT", "setting": "[2]", "value": "B (Increase in comparison with non-treated of >1.7-2.0 fold is shown as B)"}]}, {"smiles": "Cc1ccc(Nc2nc(N)nc(CN3CCCc4ccccc43)n2)cc1", "note": "[6-((3,4-dihydroquinolin-1(2H)-yl)methyl)-N2-(p-tolyl)-1,3,5-triazine-2,4-diamine]", "values": [{"measurement": "Activity L444P", "setting": "[1]; [3]", "value": "C (Increase in comparison with non-treated of 1.2-1.7 fold is shown as C)"}, {"measurement": "Activity WT", "setting": "[2]", "value": "C (Increase in comparison with non-treated of 1.2-1.7 fold is shown as C)"}]}, {"smiles": "Nc1nc(CN2CCN(c3cccc(Cl)c3)CC2)nc(Nc2ccc3c(c2)OCCO3)n1", "note": "[6-((4-(3-chlorophenyl)piperazin-1-yl)methyl)-N2-(2,3-dihydrobenzo[b][1,4]dioxin-6-yl)-1,3,5-triazine-2,4-diamine]", "values": [{"measurement": "Activity L444P", "setting": "[1]; [3]", "value": "B (Increase in comparison with non-treated of >1.7-2.0 fold is shown as B)"}, {"measurement": "Activity WT", "setting": "[2]", "value": "C (Increase in comparison with non-treated of 1.2-1.7 fold is shown as C)"}]}, {"smiles": "Cc1ccc(Nc2nc(N)nc(CN3CCN(Cc4ccc5c(c4)OCO5)CC3)n2)cc1", "note": "[6-((4-(benzo[d][1,3]dioxo1-5-ylmethyl)piperazin-1-yl)methyl)-N2-(p-tolyl)-1,3,5-triazine-2,4-diamine]", "values": [{"measurement": "Activity L444P", "setting": "[1]; [3]", "value": "C (Increase in comparison with non-treated of 1.2-1.7 fold is shown as C)"}, {"measurement": "Activity WT", "setting": "[2]", "value": "B (Increase in comparison with non-treated of >1.7-2.0 fold is shown as B)"}]}, {"smiles": "CCc1ccc(CN(C)Cc2nc(N)nc(Nc3ccc(C)cc3)n2)cc1", "note": "[6-(((4-ethylbenzyl)(methyl)amino)methyl)-N2-(p-tolyl)-1,3,5-triazine-2,4-diamine]", "values": [{"measurement": "Activity L444P", "setting": "[1]; [3]", "value": "C (Increase in comparison with non-treated of 1.2-1.7 fold is shown as C)"}, {"measurement": "Activity WT", "setting": "[2]", "value": "B (Increase in comparison with non-treated of >1.7-2.0 fold is shown as B)"}]}, {"smiles": "Cc1ccc(Nc2nc(N)nc(CN(C)c3ccc4ccccc4c3)n2)cc1", "note": "[6-((methyl(naphthalen-2-yl)amino)methyl)-N2-(p-tolyl)-1,3,5-triazine-2,4-diamine]", "values": [{"measurement": "Activity L444P", "setting": "[1]; [3]", "value": "A (Increase in comparison with non-treated of >2.0 fold is shown as A)"}, {"measurement": "Activity WT", "setting": "[2]", "value": "C (Increase in comparison with non-treated of 1.2-1.7 fold is shown as C)"}]}, {"smiles": "Cc1ccc(Nc2nc(N)nc(CN(C)c3ccccc3)n2)cc1", "note": "[Example 1, 6-((Methyl(phenyl)amino)methyl)-N^2-(p-tolyl)-1,3,5-triazine-2,4-diamine]", "values": [{"measurement": "Activity L444P", "setting": "[1]; [4]", "value": "C (Increase in comparison with non-treated of 1.2-1.7 fold is shown as C)"}, {"measurement": "Activity Wild Type (WT)", "setting": "[2]", "value": "B (Increase in comparison with non-treated of >1.7-2.0 fold is shown as B)"}]}, {"smiles": "COc1cccc(Nc2nc(N)nc(CN(C)c3ccccc3)n2)c1", "note": "[Example 3]", "values": [{"measurement": "Activity L444P", "setting": "[1]; [4]", "value": "C (Increase in comparison with non-treated of 1.2-1.7 fold is shown as C)"}, {"measurement": "Activity Wild Type (WT)", "setting": "[2]", "value": "B (Increase in comparison with non-treated of >1.7-2.0 fold is shown as B)"}]}, {"smiles": "Cc1ccc(Nc2nc(N)nc(CN(C)Cc3ccccc3)n2)cc1", "note": "[Example 4, 6-((Benzyl(methyl)amino)methyl)-N^2-p-tolyl-1,3,5-trizine-2,4-diamine]", "values": [{"measurement": "Activity L444P", "setting": "[1]; [4]", "value": "C (Increase in comparison with non-treated of 1.2-1.7 fold is shown as C)"}, {"measurement": "Activity Wild Type (WT)", "setting": "[2]", "value": "A (Increase in comparison with non-treated of >2.0 fold is shown as A)"}]}, {"smiles": "CN(Cc1ccccc1)Cc1nc(N)nc(Nc2ccc(Br)cc2)n1", "note": "[Example 5, 6-((Benzyl(methyl)amino)methyl)-N^2-(4-bromophenyl)-1,3,5-triazine-2,4-diamine]", "values": [{"measurement": "Activity L444P", "setting": "[1]; [4]", "value": "C (Increase in comparison with non-treated of 1.2-1.7 fold is shown as C)"}, {"measurement": "Activity Wild Type (WT)", "setting": "[2]", "value": "C (Increase in comparison with non-treated of 1.2-1.7 fold is shown as C)"}]}, {"smiles": "COc1ccc(Nc2nc(N)nc(CN(C)Cc3ccccc3)n2)cc1", "note": "[Example 6, 6-((Benzyl(methyl)amino)methyl)-N^2-(4-methoxyphenyl)-1,35-triazine-2,4-diamine]", "values": [{"measurement": "Activity L444P", "setting": "[1]; [4]", "value": "B (Increase in comparison with non-treated of >1.7-2.0 fold is shown as B)"}, {"measurement": "Activity Wild Type (WT)", "setting": "[2]", "value": "B (Increase in comparison with non-treated of >1.7-2.0 fold is shown as B)"}]}, {"smiles": "CN(Cc1ccccc1)Cc1nc(N)nc(Nc2cccc(Br)c2)n1", "note": "[Example 8]", "values": [{"measurement": "Activity L444P", "setting": "[1]; [4]", "value": "B (Increase in comparison with non-treated of >1.7-2.0 fold is shown as B)"}, {"measurement": "Activity Wild Type (WT)", "setting": "[2]", "value": "B (Increase in comparison with non-treated of >1.7-2.0 fold is shown as B)"}]}, {"smiles": "COc1cccc(Nc2nc(N)nc(CN(C)Cc3ccccc3)n2)c1", "note": "[Example 9]", "values": [{"measurement": "Activity L444P", "setting": "[1]; [4]", "value": "C (Increase in comparison with non-treated of 1.2-1.7 fold is shown as C)"}, {"measurement": "Activity Wild Type (WT)", "setting": "[2]", "value": "B (Increase in comparison with non-treated of >1.7-2.0 fold is shown as B)"}]}, {"smiles": "CN(Cc1ccccc1)Cc1cc(Nc2ccc3cnccc3c2)nc(N)n1", "note": "[Example 31, 6-((Benzyl(methyl)amino)methyl)-N^4-(isoquinolin-6-yl)pyrimidine-2,4-diamine]", "values": [{"measurement": "Activity Wild Type (WT)", "setting": "[2]", "value": "A (Increase in comparison with non-treated of >2.0 fold is shown as A)"}]}, {"smiles": "COc1ccccc1Nc1cc(N)nc(CN(C)Cc2ccccc2)n1", "note": "[Example 63, 2-((Benzyl(methyl)amino)methyl)-N^4-(2-methoxyphenyl)pyrimidine-4,6-diamine]", "values": [{"measurement": "Activity L444P", "setting": "[1]; [4]", "value": "C (Increase in comparison with non-treated of 1.2-1.7 fold is shown as C)"}]}, {"smiles": "COc1ccc(Nc2cc(N)nc(CN(C)Cc3ccccc3)n2)cc1", "note": "[Example 66, 2-((Benzyl(methyl)amino)methyl)-N^4-(4-methoxyphenyl)pyrimidine-4,6-diamine]", "values": [{"measurement": "Activity L444P", "setting": "[1]; [4]", "value": "B (Increase in comparison with non-treated of >1.7-2.0 fold is shown as B)"}]}, {"smiles": "COc1ccccc1Nc1nc(N)cc(CN2CCc3ccccc3C2)n1", "note": "[Example 71, (6-((3,4-Dihydroisoquinolin-2(1H)-yl)methyl)-N-(2-methoxyphenyl)pyrimidine-2,4-diamine)]", "values": [{"measurement": "Activity L444P", "setting": "[1]; [4]", "value": "C (Increase in comparison with non-treated of 1.2-1.7 fold is shown as C)"}]}, {"smiles": "COc1ccccc1Nc1nc(N)nc(CN(C)Cc2ccc3ccccc3c2)n1", "note": "[N2-(2-methoxyphenyl)-6-((methyl(naphthalen-2-ylmethyl)amino)methyl)-1,3,5-triazine-2,4-diamine]", "values": [{"measurement": "Activity L444P", "setting": "[1]; [3]", "value": "B (Increase in comparison with non-treated of >1.7-2.0 fold is shown as B)"}]}, {"smiles": "CN(Cc1cccc(F)c1)Cc1nc(N)nc(Nc2ccc(Cl)cc2)n1", "note": "[N2-(4-chlorophenyl)-6-(((3-fluorobenzyl)(methyl)amino)methyl)-1,3,5-triazine-2,4-diamine]", "values": [{"measurement": "Activity L444P", "setting": "[1]; [3]", "value": "C (Increase in comparison with non-treated of 1.2-1.7 fold is shown as C)"}]}, {"smiles": "Nc1nc(CN2CCCC2c2ccccc2)nc(Nc2ccc(F)cc2)n1", "note": "(centres unmarked) [N2-(4-fluorophenyl)-6-((2-phenylpyrrolidin-1-yl)methyl)-1,3,5-triazine-2,4-diamine]", "values": [{"measurement": "Activity L444P", "setting": "[1]; [3]", "value": "B (Increase in comparison with non-treated of >1.7-2.0 fold is shown as B)"}]}]}
